Source: patent US5292498A, “Method of treating lung disease with uridine triphosphates” (The University of North Carolina At Chapel Hill, priority 1991, dated 1994)

Assays:
[1] = test system: normal human nasal epithelial cells; test: Intracellular calcium [Ca^2+ ]i in single normal human nasal epithelial cells (Fura-2); assay type: cell-based; details: concentration-effect curves, FIG. 3
Procedure: (§1) Freshly excised human nasal epithelium from normal or cystic fibrosis subjects was grown in primary culture in F-12, hormone-supplemented medium in accordance with known procedures. See R. Wu et al., Am. Rev. Respir. Dis. 132, 311-320 (1985). For [Ca^2+ ]i measurements, cultures were grown on non-fluorescent vitrogen substrates on glass coverslips. Cultures for electrophysiologic studies were grown to confluence on permeable collagen matrix supports (CMS), allowing addition of agonists to the basolateral or apical surface of the epithelial sheet.
(§2) Primary human nasal epithelial cells grown to confluence on vitrogen coated coverslips were loaded with a final concentration of 3 μM Fura-2/AM at 37° C. for 30 minutes. The cells were then washed in NaCl Ringer and mounted in a chamber for measurements of fluorescence. To reduce the rate of leakage of Fura-2 from the cell into the extracellular space and avoid time-dependent compartmentalization of the probe, all measurements of [Ca^2+ ]i were performed at 25° C. At this temperature,no vesicular bright spots indicative of compartmentalization of the probe were observed.
Measurements of [Ca^2+ ]i in single human nasal epithelial cells were obtained with a modular microspectrofluorimeter (SPEX Industries, Inc., Edison, N.J.) attached to a Zeiss Axiovert IM 35 microscope. The system was equipped with a xenon lamp, beam splitter, two monochromators and a rotating chopper mirror that permitted excitation of cell fluorescence at alternating wavelengths of 340 and 380 nm (emission ≥450 nm). The fluorescent signal from a single cell was measured with a photometer equipped with a pinhole (spot diameter of 3-5 μm) that excluded signals from adjacent cells.
After agonist was added, the fluorescent signal was quenched by a NaCl ringer solution containing 1.5×10^-4 M digitonin and 10^-3 M MnCl2. The remaining signal at each excitation wavelength, equivalent to the background fluorescence in non loaded cells, was subtracted from data from Fura-2/AM loaded cells before the ratio (340 nm/380 nm) was taken. The 340 nm/380 nm ratio was converted to an actual [Ca^2+ ]i measurement by using the external calibration standards and the formula derived by G. Grynkiewicz et al., J. Biol. Chem. 260, 3440-3450 (1985), used with dual wavelength measurements: [Ca^2+ ]i =K [(Rx --Ro)/(Rs --Rx)], with Ro and Rs representing the ratios at 0 Ca^2+ and saturating Ca^2+, respectively. Rx represents the experimental ratio.
To investigate whether changes in [Ca^2+ ]i might be related to regulation of ion transport, receptor characterization was performed by measuring changes in [Ca^2+ ]i in response to a number of nucleotide drugs. Concentration-effect curves for agonists active at P2x, P2y subtype or UTP sensitive receptors and other purine or pyrimidine receptor agonists were generated, measuring mean change in [Ca^2+ ]i in response to agonist concentration. Data are shown in FIG. 3, which gives log concentration-effect relationships of purinergic and pyrimidinergic compounds on [Ca^2+ ]i (mean change in [Ca^2+ ]i over basal levels).

[2] = test system: normal human nasal epithelium; test: Bioelectric studies (short circuit current, Isc) of normal human nasal epithelium in Ussing chambers; assay type: cell-based; details: for rank order of potency for Cl^- secretion: FIG. 2; for rank order of potency for increase in Isc / character of concentration-effect curve including 10^-3 M / character of log concentration-effect curve / change in ion transport rates: basolateral surface; for rank order of potency for increase in Isc / change in ion transport rates: FIG. 1; for character of concentration-effect curve including 10^-3 M: 10^-3 M drug considered; for character of log concentration-effect curve: 10^-7 to 10^-4 M; for increase in Isc: dipyridamole 10^-6 M; for change in ion transport rates: compared to ATP curve
Procedure: as §1
(§3) Confluent monolayers of primary human nasal epithelium were mounted in modified Ussing chambers in accordance with known procedures. See, e.g., R. Boucher et al., J. Physiol. (Lond.) 405, 77-103 (1988); M. Knowles et al., Science 221, 1067-1070 (1983). The studies described below were performed under short circuit current conditions at 37° C., and in some studies, amiloride was added to the apical bath (10^-4 M) to block transepithelial sodium transport. Changes in transepithelial potential difference (Vt), resistance (Rt) and short circuit current (Isc) were measured in response to addition of various nucleotides. Each cultured preparation was exposed to only one concentration of an agonist on either the basolateral or apical surface to avoid the tachyphylaxis observed in preliminary cumulative dose response studies. To construct concentration-effect relationships of responses to nucleotides, it was assumed that the same maximum response to an agonist could be induced from each tissue culture preparation from the same individual.
The effects of extracellular ATP on normal human nasal epithelium were investigated employing bioelectric measurements of ion transport activity when the nucleotide was applied to either the apical or basolateral membrane. […] In general, the change in Isc induced by application of ATP to the apical or the basolateral side returned to baseline or below within 5 minutes after addition of agonist. […] Apical pretreatment with amiloride (10^-4 M) removes active Na^+ absorption as a component of the Isc so that the residual Isc reflects a Cl^- secretory current (R. Boucher et al., J. Clin. Invest. 78, 1245-1252 (1986); N. Willumsen et al., Am. J. Physiol. 256, C1033-C1044 (1989)).
A concentration-effect relationship was found when ATP was applied to normal human nasal epithelium under basal conditions (data not shown). Comparisons were made between responses of tissues from different donors based on the peak change in Isc following ATP application. The curve describes the mean peak change in Isc in response to log increasing concentrations of ATP applied to the apical or basolateral surface.
Concentration-effect relationships were also found for ATP applied to the apical or basolateral membrane of amiloride-pretreated tissues (data not shown). Again, the nucleotide's effect on ion transport was examined as the mean peak change in Isc after ATP application.
(§4) The purinergic receptor subtype(s) linked to regulation of ion transport of human nasal epithelium were characterized by obtaining concentration-effect relationships for a variety of purine and pyrimidine agonists in preparations derived from normal and CF patients. We characterized receptor subtype(s) on the […] surface by measuring nucleotide effect on basal Na^+ transport rates. Because therapies designed to induce Cl^- secretion might best be delivered by the aerosol route, receptor subtype characterization on the apical barrier was performed in the presence of amiloride. The effect of extracellular nucleotides on ion transport is reported as the percent change in Isc from control values when applied to the basolateral or apical surface of the culture. Basal pre-agonist currents were similar for tissues in each concentration group.

[3] = 25° C.; read-out: Kd (effective dissociation constant for Fura-2); cited from earlier work
[4] = test system: CF human nasal epithelium; test: Bioelectric studies (Isc) of cystic fibrosis (CF) human nasal epithelium; assay type: cell-based; details: for Isc response tracing: apical, amiloride-pretreated, FIG. 4C
Procedure: as §1, §3, §4
Availability of Cystic Fibrosis (CF) tissues is limited, and our investigation of effects of nucleotides was restricted to examining regulation of Cl^- secretion rates and [Ca^2+ ]i levels by ATP and UTP.

[5] = test system: CF nasal epithelial cells; test: Intracellular calcium [Ca^2+ ]i in single CF nasal epithelial cells (Fura-2); assay type: cell-based, human; details: FIG. 6
Procedure: as §1, with “132, 311-320 (1985).” left out
as §2, with “C.” for “C. At this temperature,no vesicular bright spots indicative of compartmentalization of the probe were observed.”
Measurements of [Ca^2+ ]i in single human nasal epithelial cells were obtained with a modular microspectrofluorimeter (SPEX Industries, Inc., Edison, N.J.) attached to a Zeiss Axiovert IM 35 microscope. […] The fluorescent signal from a single cell was measured with a photometer equipped with a pinhole (spot diameter of 3-5 μm) that excluded signals from adjacent cells. […]

[6] = apical surface, amiloride-pretreated

| SMILES | effectiveness for raising [Ca^2+ ]i [1] | rank order of potency for Cl^- secretion [2, 6] | rank order of potency for increase in Isc [2] | character of concentration-effect curve including 10^-3 M [2] | character of log concentration-effect curve [2] | also measured |
| --- | --- | --- | --- | --- | --- | --- |
| CSc1nc(N)c2ncn([C@@H]3O[C@H](COP(=O)(O)OP(=O)(O)OP(=O)(O)O)[C@@H](O)[C@H]3O)c2n1 [2MeSATP, 2-methylthio ATP] | little effect | ATP≥UTP>ATPγS>ADP>2MeSATP>ADPβS | 2MeSATP>UTP≥ATP>ATPγS>ADP>ADPβS |  |  |  |
| O=c1[nH]c(=O)n([C@@H]2O[C@H](COP(=O)(O)OP(=O)(O)OP(=O)(O)O)[C@@H](O)[C@H]2O)cc1Br [5BrUTP, 5-bromo-uridine 5'-triphosphate] | essentially as effective as UTP |  |  |  |  |  |
| Nc1ncnc2c1ncn2[C@@H]1O[C@H](COP(=O)(O)OP(=O)(O)O)[C@@H](O)[C@H]1O [ADP] |  | ATP≥UTP>ATPγS>ADP>2MeSATP>ADPβS | 2MeSATP>UTP≥ATP>ATPγS>ADP>ADPβS |  |  |  |
| Nc1ncnc2c1ncn2[C@@H]1O[C@H](COP(=O)(O)OP(O)(O)=S)[C@@H](O)[C@H]1O [ADPβS] | little effect | ATP≥UTP>ATPγS>ADP>2MeSATP>ADPβS | 2MeSATP>UTP≥ATP>ATPγS>ADP>ADPβS | biphasic in character | sigmoidal character |  |
| Nc1ncnc2c1ncn2[C@@H]1O[C@H](COP(=O)(O)OP(=O)(O)OP(O)(O)=S)[C@@H](O)[C@H]1O [ATPγS] | most effective agonists | ATP≥UTP>ATPγS>ADP>2MeSATP>ADPβS | 2MeSATP>UTP≥ATP>ATPγS>ADP>ADPβS | biphasic in character | sigmoidal character |  |
| Cc1ccc(N(CC(=O)O)CC(=O)O)c(OCCOc2cc3cc(-c4ncc(C(=O)O)o4)oc3cc2N(CC(=O)O)CC(=O)O)c1 [Fura-2] |  |  |  |  |  | Kd [3]: 0.157 µM |
| O=c1ccn([C@@H]2O[C@H](COP(=O)(O)OP(=O)(O)OP(=O)(O)O)[C@@H](O)[C@H]2O)c(=O)[nH]1 [UTP, uridine 5'-triphosphate] | most effective agonists | ATP≥UTP>ATPγS>ADP>2MeSATP>ADPβS | 2MeSATP>UTP≥ATP>ATPγS>ADP>ADPβS | biphasic in character | sigmoidal character | Isc response tracing ([4]; UTP 10^-4 M as printed): Cl^- secretory response; Isc response tracing ([4]; UTP 10^-6 M as printed): Cl^- secretory response; change in Isc over basal levels ([4]; apical surface, amiloride-pretreated CF tissues): routinely stimulated increases in Cl^- secretion; [Ca^2+ ]i response in CF tissues [5]: Increases in [Ca^2+ ]i |
| Nc1ncnc2c1ncn2[C@@H]1O[C@H](CO)[C@@H](O)[C@H]1O [adenosine] |  |  |  |  |  | increase in Isc ([2]; 10^-4 M, apical surface, amiloride-pretreated, n=8): 10±6%; increase in Isc ([2]; 10^-5 M or 10^-4 M, basolateral barrier, n=8 each dose): less than 5%; increase in Isc ([2]; 10^-5 M, apical surface, amiloride-pretreated, n=7): 10±7%; change in Isc compared to ATP ([2]; following preincubation with dipyridamole 10^-6 M): only small and variable changes in Isc compared to ATP |
| Nc1ncnc2c1ncn2[C@@H]1O[C@H](COP(=O)(O)CP(=O)(O)OP(=O)(O)O)[C@@H](O)[C@H]1O [αβMeATP, α,β-methylene ATP] | little effect |  |  |  |  | change in ion transport rates [2]: little change in ion transport rates |
| Nc1ncnc2c1ncn2[C@@H]1O[C@H](COP(=O)(O)OP(=O)(O)CP(=O)(O)O)[C@@H](O)[C@H]1O [βγMeATP, β,γ-methylene ATP] | little effect |  |  |  |  | change in ion transport rates [2]: little change in ion transport rates |
